Patent publication US12077503B2, “Substituted cyclic amides and their use as herbicides” (FMC CORPORATION, priority 2015, dated 2024)

Experiments:
Assay type in all cases: in vivo
Kochia (Kochia scoparia) [1] = assay: Test A preemergence; conditions: for Plant response rating, Kochia: 125 g ai/ha, preemergence, 0 to 100 scale (0 no effect, 100 complete control); for Kochia plant response rating (0 to 100 scale, 0 is no effect, 100 is complete control): Preemergence, 500 g ai/ha, visual injury approx. 10 d
Method in brief: (§1)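 Treatment is preemergence as a directed soil spray after planting, or postemergence at the one- to two-leaf stage, with test chemical in a non-phytotoxic solvent mixture plus surfactant. Plants stay in the greenhouse about 10 d before visual injury scoring on a 0 to 100 scale versus untreated controls.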

[2] = system: barnyardgrass (Echinochloa crus-galli); assay: Test A preemergence; conditions: for Plant response rating, Barnyardgrass: 125 g ai/ha, preemergence, 0 to 100 scale (0 no effect, 100 complete control); for Barnyardgrass plant response rating (0 to 100 scale, 0 is no effect, 100 is complete control): Preemergence, 500 g ai/ha, visual injury approx. 10 d
Method in brief: as §1

[3] = system: giant foxtail (Setaria faberii); assay: Test A preemergence; conditions: for Plant response rating, Foxtail, Giant: 125 g ai/ha, preemergence, 0 to 100 scale (0 no effect, 100 complete control); for Foxtail, Giant plant response rating (0 to 100 scale, 0 is no effect, 100 is complete control): Preemergence, 500 g ai/ha, visual injury approx. 10 d
Method in brief: as §1

[4] = system: pigweed (Amaranthus retroflexus); assay: Test A preemergence; conditions: for Plant response rating, Pigweed: 125 g ai/ha, preemergence, 0 to 100 scale (0 no effect, 100 complete control); for Pigweed plant response rating (0 to 100 scale, 0 is no effect, 100 is complete control): Preemergence, 500 g ai/ha, visual injury approx. 10 d
[5] = system: ragweed (common ragweed, Ambrosia elatior); assay: Test A preemergence; conditions: for Plant response rating, Ragweed: 125 g ai/ha, preemergence, 0 to 100 scale (0 no effect, 100 complete control); for Ragweed plant response rating (0 to 100 scale, 0 is no effect, 100 is complete control): Preemergence, 500 g ai/ha, visual injury approx. 10 d
Method in brief: as §1

[6] = system: ryegrass, Italian (Italian ryegrass, Lolium multiflorum); assay: Test A preemergence; conditions: for Plant response rating, Ryegrass, Italian: 125 g ai/ha, preemergence, 0 to 100 scale (0 no effect, 100 complete control); for Ryegrass, Italian plant response rating (0 to 100 scale, 0 is no effect, 100 is complete control): Preemergence, 500 g ai/ha, visual injury approx. 10 d
Method in brief: as §1

[7] = system: Galium (catchweed bedstraw, Galium aparine); assay: Test A postemergence; conditions: postemergence; for Galium plant response rating: 125 g ai/ha, visual injury rating on 0 to 100 scale (0 no effect, 100 complete control), approx. 10 d; for Plant response rating, Galium: 500 g ai/ha, 0 to 100 scale, 0 no effect, 100 complete control
Method in brief: as §1

Kochia (Kochia scoparia) [8] = assay: Test A postemergence; conditions: postemergence; for Kochia plant response rating: 125 g ai/ha, visual injury rating on 0 to 100 scale (0 no effect, 100 complete control), approx. 10 d; for Plant response rating, Kochia: 500 g ai/ha, 0 to 100 scale, 0 no effect, 100 complete control
Method in brief: as §1

[9] = system: barnyardgrass (Echinochloa crus-galli); assay: Test A postemergence; conditions: postemergence; for Barnyardgrass plant response rating: 125 g ai/ha, visual injury rating on 0 to 100 scale (0 no effect, 100 complete control), approx. 10 d; for Plant response rating, Barnyardgrass: 500 g ai/ha, 0 to 100 scale, 0 no effect, 100 complete control
Method in brief: as §1

[10] = system: blackgrass (Alopecurus myosuroides); assay: Test A postemergence; conditions: postemergence; for Blackgrass plant response rating: 125 g ai/ha, visual injury rating on 0 to 100 scale (0 no effect, 100 complete control), approx. 10 d; for Plant response rating, Blackgrass: 500 g ai/ha, 0 to 100 scale, 0 no effect, 100 complete control
Method in brief: as §1

corn (Zea mays) = assay: Test A postemergence; conditions: postemergence; for Corn plant response rating: 125 g ai/ha, visual injury rating on 0 to 100 scale (0 no effect, 100 complete control), approx. 10 d; for Plant response rating, Corn: 500 g ai/ha, 0 to 100 scale, 0 no effect, 100 complete control
Method in brief: as §1

[11] = system: giant foxtail (Setaria faberii); assay: Test A postemergence; conditions: postemergence; for Foxtail, Giant plant response rating: 125 g ai/ha, visual injury rating on 0 to 100 scale (0 no effect, 100 complete control), approx. 10 d; for Plant response rating, Foxtail, Giant: 500 g ai/ha, 0 to 100 scale, 0 no effect, 100 complete control
Method in brief: as §1

[12] = system: pigweed (Amaranthus retroflexus); assay: Test A postemergence; conditions: postemergence; for Pigweed plant response rating: 125 g ai/ha, visual injury rating on 0 to 100 scale (0 no effect, 100 complete control), approx. 10 d; for Plant response rating, Pigweed: 500 g ai/ha, 0 to 100 scale, 0 no effect, 100 complete control
Method in brief: as §1

[13] = system: ragweed (common ragweed, Ambrosia elatior); assay: Test A postemergence; conditions: postemergence; for Ragweed plant response rating: 125 g ai/ha, visual injury rating on 0 to 100 scale (0 no effect, 100 complete control), approx. 10 d; for Plant response rating, Ragweed: 500 g ai/ha, 0 to 100 scale, 0 no effect, 100 complete control
Method in brief: as §1

[14] = system: ryegrass, Italian (Italian ryegrass, Lolium multiflorum); assay: Test A postemergence; conditions: postemergence; for Ryegrass, Italian plant response rating: 125 g ai/ha, visual injury rating on 0 to 100 scale (0 no effect, 100 complete control), approx. 10 d; for Plant response rating, Ryegrass, Italian: 500 g ai/ha, 0 to 100 scale, 0 no effect, 100 complete control
Method in brief: as §1

[15] = system: wheat (Triticum aestivum); assay: Test A postemergence; conditions: postemergence; for Wheat plant response rating: 125 g ai/ha, visual injury rating on 0 to 100 scale (0 no effect, 100 complete control), approx. 10 d; for Plant response rating, Wheat: 500 g ai/ha, 0 to 100 scale, 0 no effect, 100 complete control
Method in brief: as §1

[16] = system: barnyardgrass (Echinochloa crus-galli); assay: Test B flooded paddy test; conditions: Flood, 250 g ai/ha; 0 to 100 scale where 0 is no effect and 100 is complete control; 13 to 15 d
Method in brief: (§2)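 Compound goes directly into floodwater once pots are flooded 3 cm above soil, targeting plants at two leaves; the water depth is then held for the test duration. Plants sit 13–15 d in a greenhouse and are rated visually, 100 denoting complete control.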

[17] = system: ducksalad (Heteranthera limosa); assay: Test B flooded paddy test; conditions: Flood, 250 g ai/ha; 0 to 100 scale where 0 is no effect and 100 is complete control; 13 to 15 d
Method in brief: as §2

rice (Oryra sativa) = assay: Test B flooded paddy test; conditions: Flood, 250 g ai/ha; 0 to 100 scale where 0 is no effect and 100 is complete control; 13 to 15 d
Method in brief: as §2

[18] = system: sedge, umbrella (small-flower umbrella sedge, Cyperus difformis); assay: Test B flooded paddy test; conditions: Flood, 250 g ai/ha; 0 to 100 scale where 0 is no effect and 100 is complete control; 13 to 15 d
Method in brief: as §2

SMILES	Plant response rating, Kochia (Kochia (Kochia scoparia) [1])	Kochia plant response rating (0 to 100 scale, 0 is no effect, 100 is complete control) (Kochia (Kochia scoparia) [1])	Plant response rating, Barnyardgrass [2]	Barnyardgrass plant response rating (0 to 100 scale, 0 is no effect, 100 is complete control) [2]	Plant response rating, Foxtail, Giant [3]	Foxtail, Giant plant response rating (0 to 100 scale, 0 is no effect, 100 is complete control) [3]	Plant response rating, Pigweed [4]	Pigweed plant response rating (0 to 100 scale, 0 is no effect, 100 is complete control) [4]	Plant response rating, Ragweed [5]	Ragweed plant response rating (0 to 100 scale, 0 is no effect, 100 is complete control) [5]	Plant response rating, Ryegrass, Italian [6]	Ryegrass, Italian plant response rating (0 to 100 scale, 0 is no effect, 100 is complete control) [6]	Galium plant response rating [7]	Plant response rating, Galium [7]	Kochia plant response rating (Kochia (Kochia scoparia) [8])	Plant response rating, Kochia (Kochia (Kochia scoparia) [8])	Barnyardgrass plant response rating [9]	Plant response rating, Barnyardgrass [9]	Blackgrass plant response rating [10]	Plant response rating, Blackgrass [10]	other results
Cc1ccc(C2CNC(=O)C2C(=O)Nc2ccc(F)c(C)c2F)cc1F (stereo not drawn) [Compound 462]	30	70	80	90	80	90	0	0	10	50	0	0	0	10	0	0	70	80	20	40	Corn plant response rating (corn (Zea mays)): 0; Plant response rating, Corn (corn (Zea mays)): 0; Foxtail, Giant plant response rating [11]: 60; Plant response rating, Foxtail, Giant [11]: 70; Pigweed plant response rating [12]: 0; Plant response rating, Pigweed [12]: 0; Ragweed plant response rating [13]: 0; Plant response rating, Ragweed [13]: 0; Ryegrass, Italian plant response rating [14]: 0; Plant response rating, Ryegrass, Italian [14]: 0; Wheat plant response rating [15]: 0; Plant response rating, Wheat [15]: 0; Plant response rating, Barnyardgrass [16]: 40; Plant response rating, Ducksalad [17]: 85; Plant response rating, Rice (rice (Oryra sativa)): 0; Plant response rating, Sedge, Umbrella [18]: 0
CN1CC(c2ccc(F)cc2)C(C(=O)Nc2cccc(F)c2F)C1=O (stereo not drawn) [Compound 438]	70	80	90	100	100	100	80	90	60	90	50	70	40	50	70	70	90	90	40	70	Corn plant response rating (corn (Zea mays)): 0; Plant response rating, Corn (corn (Zea mays)): 50; Foxtail, Giant plant response rating [11]: 90; Plant response rating, Foxtail, Giant [11]: 90; Pigweed plant response rating [12]: 0; Plant response rating, Pigweed [12]: 60; Ragweed plant response rating [13]: 0; Plant response rating, Ragweed [13]: 30; Ryegrass, Italian plant response rating [14]: 40; Plant response rating, Ryegrass, Italian [14]: 60; Wheat plant response rating [15]: 30; Plant response rating, Wheat [15]: 70; Plant response rating, Barnyardgrass [16]: 85; Plant response rating, Ducksalad [17]: 100; Plant response rating, Rice (rice (Oryra sativa)): 20; Plant response rating, Sedge, Umbrella [18]: 0
